# Data as given in publication PMC12561453, “Synthesis and Structure–Activity Relationship Study of 2-(amino)quinazolin-4(3H)-one Derivatives as Potential Inhibitors of Methicillin-Resistant Staphylococcus aureus (MRSA)” (Antibiotics, 2025).
# Read-outs that look alike come from different tables or passages of the source.
# What was measured:
# HepG2 cells = experiment: In vitro cytotoxicity, HepG2 viability (resazurin); format: cell-based, human; conditions: Homo sapiens, HepG2, 24 h, read-out: HepG2 IC50
# Experimental: The in vitro cytotoxicity of the compounds was evaluated by measuring the viability of HepG2 cells, a human liver cell line, following treatment in a dose–response manner, as previously described. […] The efficacy window was calculated as the ratio of IC50 in HepG2 cells to MIC50 against JE2.
# To test cytotoxicity with compounds, the human liver cell line HepG2 (ATCC #HB-8065) was used for the assay. HepG2 was cultured in DMEM with 10% fetal bovine serum (FBS) in a 96-well microplate at 37 °C and 5% CO2. HepG2 cells were seeded at a final density of 5 × 10^4 cells/well, and DMEM-containing diluted compounds were added and incubated on the plates at 37 °C in 5% CO2 for 24 h. After that, resazurin (final concentration, 0.1 mg/mL) was added to each well and incubated on the plates at 37 °C in 5% CO2 for 2 h. To detect the fluorescence at 530 nm excitation and 590 nm emission, an Ensight multimode plate reader was used (Revvity, Waltham, MA, USA).
# S. aureus USA300 JE2 = experiment: Broth microdilution dose-response, S. aureus USA300 JE2 (MRSA); format: cell-based, Staphylococcus aureus; conditions: for fold better antibacterial activity against JE2 compared to compound 1: JE2, versus compound 1
# Text: (§1) The antistaphylococcal activities (MIC50) of the synthesized compounds were examined via a previously described broth microdilution method against two S. aureus strains: ATCC25923, a methicillin-sensitive reference strain, and JE2, a methicillin-resistant strain of the USA300 lineage (Figure 2, Table 1).
# (§2) Staphylococcus aureus USA300, a methicillin-resistant strain, was obtained from the Nebraska Transposon Mutant Library. Staphylococcus aureus ATCC25923, a pan-drug-susceptible strain, was purchased from the American Type Culture Collection (ATCC) (Manassas, VA, USA). S. aureus strains were grown in Cation-Adjusted Mueller–Hinton broth (CAMHB) (Difco) at 37 °C. Bacterial strain stocks were stored in vials with 25% glycerol at −80 °C. For each experiment, overnight cultures were prepared by inoculating a frozen bacterial strain stock in 10 mL of CAMHB medium and incubating at 37 °C in a shaking incubator (180 rpm). For the preliminary screen and dose–response experiments, 100 µL of overnight culture was inoculated into 10 mL of fresh CAMHB and incubated for 3 h at 37 °C and 180 rpm.
# (§3) Antibiotic susceptibility assay was tested according to modified Clinical and Laboratory Standards Institute (CLSI) laboratory guidelines for broth microdilution assays. S. aureus was cultured in CAMHB, and bacterial cells were prepared with an OD600 of 0.005. DRC plates were prepared by adding 40 µL of bacterial suspension to each well, where 10 µL of each compound had been dispensed for […] of two-fold serial dilutions starting at […]. After incubation of the plates at 37 °C for 18–24 h with 5% CO2, the growth of S. aureus was detected by measuring the OD600nm using an Ensight (Revvity) spectrometer (Revvity, Waltham, MA, USA).
# (§4) Figure 2 In vitro antibacterial activities of 2-(amino)quinazolin-4(3H)-one derivatives. S. aureus ATCC25923 (blue) and USA300 JE (orange) strains were incubated with serial dilutions of 2-(amino)quinazolin-4(3H)-one derivatives (0.19–100 µM) for 18–24 h. The dose–responses were observed by measuring OD600nm. The plots were drawn from each group of strains with nonlinear curve fits.
# S. aureus ATCC25923 = experiment: Broth microdilution dose-response, S. aureus ATCC25923; format: cell-based, Staphylococcus aureus
# Text: as §1, §2, §3, §4
# [1] = system: S. aureus USA300 JE2 expressing GFP in H460 cells; experiment: microbe, parasite or virus in culture; format: cell-based, Staphylococcus aureus; conditions: for MIC50: Staphylococcus aureus, USA300, 24 h, read-out: H460 Assay MIC50 (MIC50 ex vivo)
# Text: Staphylococcus aureus, including MRSA, can invade host cells and replicate intracellularly, which complicates treatment with current therapies. To evaluate the intracellular antibacterial activities of the selected compounds, the fifteen compounds tested for cytotoxicity were further assessed using a cell infection model based on H460 human lung epithelial cells, which mimic MRSA-mediated pneumonia. H460 cells were infected with the USA300 JE2 expressing green fluorescent protein (GFP) and subsequently treated with the compounds in a dose–response manner, along with three reference antibiotics: vancomycin, linezolid, and erythromycin. After 24 h of incubation, bacterial loads were quantified by measuring GFP fluorescence in each well. MIC50 values determined in the H460 infection model (MIC50 ex vivo) were generally higher than those obtained from the in vitro tests, likely due to either limited compound penetration into host cells or reduced antibacterial effect of the compounds against intracellular bacteria (Figure 3, Table 2). […] These findings underscore the potential of compound 6y as a promising lead for further development as a novel antistaphylococcal agent.
# To see the ex vivo antimicrobial activity of the compound, the human lung carcinoma cell line H460 (ATCC #HTB-177) was used. The H460 cells were cultured in RPMI 1640 medium with 10% fetal bovine serum (FBS) and in a 96-well microplate at 37 °C and 5% CO2. Cell lines were cultured for 2 days, until they reached full confluence in the well. S. aureus (USA300-containing and pCM29-encoding GFP) was cultured in CAMHB with 10 µg/mL of chloramphenicol, and bacterial cells were harvested. After washing the bacterial cells with phosphate-buffered saline (PBS) and suspending them in RPMI, infected H460 cells with S. aureus (1 × 10^7 CFU) and incubated them for 2.5 h. Samples were washed three times with PBS. Then, cells were treated with gentamicin (50 µg/mL of gentamicin in RPMI) and incubated for 1 h. Samples were washed with PBS, RPMI-containing diluted compounds were added, and then they were incubated at 37 °C in 5% CO2 for 24 h. To detect the Green fluorescent protein (GFP) signal, an Ensight multimode plate reader and Opera Phenix Plus (Revvity, Waltham, MA, USA) were used.
# Ex vivo infection model images were generated using the Opera Phenix Plus high-content imaging system. Images were obtained by a confocal microscope with a 20× water objective lens. To detect the bacteria fluorescence signal (GFP), the Alexa 488 channel (488 nm laser/500–550 filter, Thermo Fisher Scientific, Waltham, MA, USA) was used, and the brightfield channel was used for H460 cell images.
# Figure 3 Antibacterial activities of 2-(amino)quinazolin-4(3H)-one derivatives in the H460 infection model. H460 cells were infected with S. aureus USA300 JE strain expressing GFP, followed by treatment with serial dilutions of 2-(amino)quinazolin-4(3H)-one derivatives. After incubation at 37 °C for 24 h with 5% CO2, fluorescence signals of the bacteria were detected at 488 nm/510 nm using a multilabel plate reader.
# [2] = Staphylococcus aureus, USA300, USA300 JE2, methicillin-resistant, OD600 after 18–24 h, read-out: USA300 MIC50
# [3] = USA300 JE2, methicillin-resistant, OD600 after 18–24 h, read-out: USA300 MIC50
# [4] = Staphylococcus aureus, ATCC25923, methicillin-sensitive strain, OD600 after 18–24 h, read-out: ATCC25923 MIC50
# [5] = methicillin-sensitive strain, OD600 after 18–24 h, read-out: ATCC25923 MIC50
SMILES,"IC50 (HepG2 cells; HepG2 cells, 24 h, resazurin) [µM]",fold better antibacterial activity against JE2 compared to compound 1 (S. aureus USA300 JE2),MIC50 (S. aureus USA300 JE2; [2]) [µM],MIC50 (S. aureus USA300 JE2; [3]) [µM],MIC50 (S. aureus ATCC25923; [4]) [µM],MIC50 (S. aureus ATCC25923; [5]) [µM],MIC50 [1] [µM],IC50 (HepG2 cells) [µM],"MIC50 (S. aureus USA300 JE2; Staphylococcus aureus, USA300, read-out: USA300 MIC50) [µM]","MIC50 (S. aureus ATCC25923; Staphylococcus aureus, ATCC25923, read-out: ATCC25923 MIC50) [µM]","H460 Assay MIC50 (MIC50 ex vivo) ([1]; H460 cells infected with USA300 JE2-GFP, 24 h, GFP fluorescence) [µM]"
"O=c1[nH]c(Nc2cc(Cl)cc(Cl)c2)nc2cc(Cl)c(Cl)cc12 [6h, 6,7-Dichloro-2-((3,5-dichlorophenyl)amino)quinazolin-4(3H)-one]",10.2,at least 6.5 fold,0.3 to 1.9,0.3,3 to 6,3.7,4.1,–,–,–,–
"O=c1[nH]c(Nc2cc(Cl)cc(Cl)c2)nc2c(Cl)cc(Cl)cc12 [6i, 6,8-Dichloro-2-((3,5-dichlorophenyl)amino)quinazolin-4(3H)-one]",39.5,at least 6.5 fold,–,–,3 to 6,5.7,26.5,–,–,–,–
"O=c1[nH]c(Nc2cc(Cl)cc(Cl)c2)nc2ccccc12 [6j, 2-((3,5-Dichlorophenyl)amino)quinazolin-4(3H)-one]",29.7,at least 6.5 fold,–,–,3 to 6,5.9,35.4,–,–,–,–
"O=c1[nH]c(Nc2cc(Cl)cc(Cl)c2)nc2cc(C(F)(F)F)ccc12 [6k, 2-((3,5-Dichlorophenyl)amino)-7-(trifluoromethyl)quinazolin-4(3H)-one]",10.5,–,0.3,–,1.3,–,6,–,–,–,–
"O=c1[nH]c(Nc2cc(F)cc(F)c2)nc2cc(Cl)ccc12 [6q, 7-Chloro-2-((3,5-difluorophenyl)amino)quinazolin-4(3H)-one]",35.5,–,0.9 to 3,0.9,2.1 to 4.5,2.1,8.7,–,–,–,–
"O=c1[nH]c(Nc2cccc(Cl)c2)nc2cc(Cl)ccc12 [6u, 7-Chloro-2-((3-chlorophenyl)amino)quinazolin-4(3H)-one]",4.3,–,0.9 to 3,1.1,2.1 to 4.5,3.5,19.2,–,–,–,–
"O=c1[nH]c(Nc2ccc(Cl)cc2)nc2cc(Cl)ccc12 [6v, 7-Chloro-2-((4-chlorophenyl)amino)quinazolin-4(3H)-one]",25.5,–,0.9 to 3,1.7,2.1 to 4.5,2.7,23.9,–,–,–,–
"O=c1[nH]c(NCc2ccc(Cl)cc2Cl)nc2cc(Cl)ccc12 [6x, 7-Chloro-2-((2,4-dichlorobenzyl)amino)quinazolin-4(3H)-one]",15.3,–,0.9 to 3,1.7,2.1 to 4.5,3.4,17.8,–,–,–,–
"CC[C@H]1OC(=O)[C@H](C)[C@@H](O[C@H]2C[C@@](C)(OC)[C@@H](O)[C@H](C)O2)[C@H](C)[C@@H](O[C@@H]2O[C@H](C)C[C@H](N(C)C)[C@H]2O)[C@](C)(O)C[C@@H](C)C(=O)[C@H](C)[C@@H](O)[C@]1(C)O [Erythromycin, reference compound]",> 100,–,0.49,–,0.7,–,0.1,–,–,–,–
"CN[C@H](CC(C)C)C(=O)N[C@H]1C(=O)N[C@@H](CC(N)=O)C(=O)N[C@H]2C(=O)N[C@H]3C(=O)N[C@H](C(=O)N[C@H](C(=O)O)c4cc(O)cc(O)c4-c4cc3ccc4O)[C@H](O)c3ccc(c(Cl)c3)Oc3cc2cc(c3O[C@@H]2O[C@H](CO)[C@@H](O)[C@H](O)[C@H]2O[C@H]2C[C@](C)(N)[C@H](O)[C@H](C)O2)Oc2ccc(cc2Cl)[C@H]1O [Vancomycin, reference compound]",–,–,–,–,–,–,7.7,> 100,0.35,0.3,7.7
